Data as given in the Deep4Chem optical property database.
Values belong to the molecule of their own block, whether it stands above or below them.

Assay: solvent given as SMILES
[1] = in O=P(c1ccccc1)(c1ccccc1)c1ccccc1Oc1ccccc1P(=O)(c1ccccc1)c1ccccc1

SMILES: CCN(CC)c1ccc2cc(/C=C(\C#N)c3nc4ccccc4s3)c(=O)oc2c1
emission maximum (in C1COCCO1): 570 nm
emission maximum (in CC#N): 596 nm
emission maximum (in CCO): 594 nm
emission maximum (in CCOC(C)=O): 576 nm
emission maximum (in CN(C)C=O): 605 nm
emission maximum (in CO): 598 nm
emission maximum (in CS(C)=O): 613 nm
emission maximum (in Cc1ccccc1): 567 nm
emission maximum (in ClCCl): 580 nm

SMILES: CCCCN1C(=O)C(=CC=C2N(CCCC)c3ccccc3N2CCCC)C(=O)N(CCCC)C1=S
emission maximum (in CCCCCC): 488 nm
emission maximum (in CCO): 478 nm
emission maximum (in CN(C)C=O): 482 nm
emission maximum (in Cc1ccccc1): 490 nm
emission maximum (in ClC(Cl)Cl): 489 nm
emission maximum (in ClCCl): 486 nm

emission maximum (in CS(C)=O): 337 nm
SMILES: O=C1CC(=O)Nc2ccccc2N1

emission maximum (in ClCCl): 435 nm
SMILES: Cc1ccc(-n2c(-c3ccc(N(c4ccc(-c5ccc(N(c6ccc(-c7nc8c9ccccc9c9ccccc9c8n7-c7ccc(C)cc7)cc6)c6ccc(-c7nc8c9ccccc9c9ccccc9c8n7-c7ccc(C)cc7)cc6)cc5)cc4)c4ccc(-c5nc6c7ccccc7c7ccccc7c6n5-c5ccc(C)cc5)cc4)cc3)nc3c4ccccc4c4ccccc4c32)cc1

emission maximum (in ClCCl): 722 nm
SMILES: CC1=C(c2ccc(N(C)C)cc2)C(C)=[N+]2C1=C(c1c(-c3ccccn3)nc3ccccn13)c1c(C)c(-c3ccc(N(C)C)cc3)c(C)n1[B-]2(F)F

emission maximum (in C1CCOC1): 713 nm
emission maximum (in CS(C)=O): 731 nm
emission maximum (in ClCCl): 710 nm
SMILES: CCOC(=O)c1[nH]c(C)c(/C=C/C2=[N+]3C(=C(c4cc(OC)cc(OC)c4)c4c(C)c(I)c(/C=C/c5c(C)[nH]c(C(=O)OCC)c5C)n4[B-]3(F)F)C(C)=C2I)c1C

SMILES: CCn1c2ccccc2c2cc(/C=C/c3cccc(/C=C/c4ccc5c(c4)c4ccccc4n5CC)[n+]3CCCS(=O)(=O)[O-])ccc21
emission maximum (in C1CCOC1): 581 nm
emission maximum (in CC#N): 579 nm
emission maximum (in CC(C)=O): 578 nm
emission maximum (in Cc1ccccc1): 598 nm

emission maximum (in CO): 510 nm
SMILES: c1ccc(N(c2ccccc2)c2ccc(-c3ncc(-c4cnc(-c5ccc(N(c6ccccc6)c6ccccc6)cc5)s4)s3)cc2)cc1

SMILES: CCCCCCC(CCCCCC)N1C(=O)c2cccc3c(-c4ccc(-c5ccc(OC)cc5)cc4)ccc(c23)C1=O
emission maximum (in CCCCCC): 426.8 nm
emission maximum (in CCCCCCCCCCCCCC): 436.7 nm
emission maximum (in CCCCCCCCCCCO): 518.2 nm
emission maximum (in CCCCO): 556.6 nm
emission maximum (in CN(C)C=O): 583.4 nm
emission maximum (in Cc1ccccc1): 454.6 nm
emission maximum (in ClC(Cl)Cl): 492.2 nm

emission maximum (in ClCCl): 475 nm
SMILES: C(=C\c1ccc(-c2cccc3ccccc23)s1)/c1ccc(-c2cccc3ccccc23)s1

emission maximum (in C1CCOC1): 490 nm
emission maximum (in CC#N): 505 nm
emission maximum (in ClC(Cl)Cl): 500 nm
emission maximum (in ClCCl): 502 nm
SMILES: COc1cc(/C=C/c2nc3ccccc3s2)c(OC)cc1/C=C/c1nc(C)nc(/C=C/c2cc(OC)c(/C=C/c3nc4ccccc4s3)cc2OC)n1

SMILES: c1ccc2c(c1)[nH]c1c3[nH]c4ccccc4c3c3nsnc3c21
emission maximum (in CN(C)C=O): 493 nm
emission maximum (in Cc1ccccc1): 456 nm
emission maximum (in ClCCl): 489 nm

emission maximum (in CCO): 459 nm
SMILES: Cc1c(C)n2c(COC(=O)CNC(=O)OC(C)(C)C)c(C)c(=O)n2c1=O

emission maximum (in C1COCCO1): 537 nm
emission maximum (in CC#N): 541 nm
emission maximum (in CCO): 545 nm
emission maximum (in CCOC(C)=O): 535 nm
emission maximum (in O): 542 nm
SMILES: CN1C(=O)/C(=C/c2ccncc2)N=C1/C=C/c1ccncc1

SMILES: CN(CCO)c1ccc(/C=C/C2=CC(=C(C#N)C#N)CC(C)(C)C2)cc1
emission maximum (in CC#N): 651 nm
emission maximum (in CC(C)=O): 648 nm
emission maximum (in CCCCO): 649 nm
emission maximum (in ClC(Cl)Cl): 612 nm
emission maximum (in ClCCl): 634 nm
emission maximum (in c1ccccc1): 588 nm

emission maximum (in CC#N): 327 nm
emission maximum (in CCCCCC): 324 nm
SMILES: COc1ccc(-n2cccc2)cc1

emission maximum (in CCO): 465 nm
emission maximum (in ClC(Cl)Cl): 456 nm
SMILES: CCOc1ccc2c(-c3nc(-c4cccc(C)c4)no3)cc(=O)oc2c1

SMILES: CCCC1=Cc2nc1ccc1[nH]c(cc1CCC)c1nc(c(OCc3ccc(C(=O)O)cc3)cc3[nH]c2cc3CCC)C(CCC)=C1
emission maximum (in Cc1ccccc1): 685 nm

emission maximum (in ClCCl): 620 nm
SMILES: CCCCCCn1c2cc(C=C(C#N)C#N)sc2c2sc3c(sc4c5sc(C=C(C#N)C#N)cc5n(CCCCCC)c43)c21

emission maximum (in CCO): 465 nm
SMILES: Cc1c(C)n2c(COC(=O)c3ccccc3O)c(C)c(=O)n2c1=O

emission maximum (in C1CCOC1): 455.01 nm
emission maximum (in CC#N): 483.88 nm
emission maximum (in CCCCCC): 415 nm
SMILES: CC(C)(C)c1cc2ccc3cc(C(C)(C)C)cc4c(N(c5ccccc5)c5ccccc5)cc(c1)c2c34

SMILES: c1ccc(-c2nc(-c3ccccc3)nc(-n3c4ccccc4c4cc(-n5c6ccccc6c6ccccc65)cc(-n5c6ccccc6c6ccccc65)c43)n2)cc1
emission maximum (in C1CCOC1): 482.53 nm
emission maximum (in Cc1ccccc1): 465.06 nm

emission maximum (in CCO): 719 nm
SMILES: C[Si]1(C)C2=CC(=[N+]3CCC3)C=C(F)C2=Nc2c(F)cc(N3CCC3)cc21

emission maximum (in O): 443 nm
SMILES: CC(C)(C)c1cccc2c([O-])cccc12

SMILES: COc1ccc(-c2nnc(-c3cc(-c4nnc(-c5ccc(OC)cc5)o4)c(-n4c5ccccc5c5ccccc54)cc3-n3c4ccccc4c4ccccc43)o2)cc1
emission maximum (in Cc1ccccc1): 428 nm
emission maximum [1]: 452 nm

SMILES: COc1ccc2c3c(c4ccc(C(C)(C)C)cc4c2c1)=C(c1cc(OC)c(OC)c(OC)c1)C1=Nc2c(-c4cc(OC)c(OC)c(OC)c4)c4c5ccc(C(C)(C)C)cc5c5cc(OC)ccc5c4n2[B-](F)(F)[N+]=31
emission maximum (in Cc1ccccc1): 810 nm

emission maximum (in CCO): 412 nm
SMILES: CC(C)=CCN1C(=O)c2cccc3c2c(cc2nc(C)oc23)C1=O

emission maximum (in ClC(Cl)Cl): 565 nm
SMILES: N#Cc1nc(N(Cc2ccccc2Br)Cc2ccccc2Br)c(C#N)nc1N(Cc1ccccc1Br)Cc1ccccc1Br

SMILES: CCn1c2ccccc2c2cc(/C=C/c3cc(/C=C/c4ccc5c(c4)c4ccccc4n5CC)[n+](CCCS(=O)(=O)[O-])c(/C=C/c4ccc5c(c4)c4ccccc4n5CC)c3)ccc21
emission maximum (in C1CCOC1): 605 nm
emission maximum (in CC#N): 611 nm
emission maximum (in CC(C)=O): 610 nm
emission maximum (in Cc1ccccc1): 599 nm

SMILES: COCCC1=Cc2nc1ccc1[nH]c(cc1CCOC)c1nc(c(O)cc3[nH]c2cc3CCOC)C(CCOC)=C1
emission maximum (in Cc1ccccc1): 688 nm

emission maximum (in O): 463 nm
SMILES: CC(=O)Nc1ccc2c(c1)c(=O)c1cc(NC(C)=O)ccc1n2CCCCCC(=O)O

emission maximum (in ClCCl): 500 nm
SMILES: c1ccc(-c2ccc3c4ccc(-c5ccccc5)c5c(-c6ccccc6)ccc(c6cccc2c63)c54)cc1

emission maximum (in ClC(Cl)Cl): 460 nm
SMILES: CCN(CC)c1ccc2cc(-c3cn4cc5ccccc5cc4n3)c(=O)oc2c1

emission maximum (in ClCCl): 650 nm
SMILES: CC1=C(C)C(c2c(C)c(C)c3n2[B-](F)(F)[N+]2=C(C)C(C)=C(C)C2=C3)=[N+]2C1=Cc1c(C)c(C)c(C)n1[B-]2(F)F

emission maximum (in CC#N): 418 nm
emission maximum (in CCCCCC): 389 nm
emission maximum (in CCO): 415 nm
emission maximum (in CN(C)C=O): 418 nm
emission maximum (in CO): 416 nm
emission maximum (in ClC(Cl)Cl): 406 nm
SMILES: COc1ccc(-n2nc(C#N)c(N3CCCC3)n2)cc1

emission maximum (in C1CCOC1): 454 nm
SMILES: CCCCCOc1ccc2c(c1)c1ccc3cccc4c5cc(OC)cc6oc(=O)c2c(c65)c1c34

emission maximum (in ClCCl): 520 nm
SMILES: CC[C@H](C)COc1ccc(C2=C3C(C)=CC(C)=[N+]3[B-](F)(F)n3c(C)cc(C)c32)cc1

SMILES: c1ccc(-c2nc(-c3ccccc3)nc(-c3ccc(-n4c5ccccc5c5cc6c(cc54)C4c5ccccc5C6c5ccccc54)cc3)n2)cc1
emission maximum (in Cc1ccccc1): 432 nm
emission maximum [1]: 457 nm

emission maximum (in CN(C)C=O): 408 nm
SMILES: O=c1[nH]nc(-c2ccc(/C=C/c3ccc(-c4n[nH]c(=O)o4)cc3)cc2)o1

SMILES: CN(C)CCNc1ccc([N+](=O)[O-])cc1[N+](=O)[O-]
emission maximum (in C1CCCCC1): 368 nm
emission maximum (in C1CCOC1): 389 nm
emission maximum (in C1COCCO1): 385 nm
emission maximum (in CC#N): 399 nm
emission maximum (in CC(C)=O): 401 nm
emission maximum (in CCCCCC): 363 nm
emission maximum (in CCO): 394 nm
emission maximum (in CCOC(C)=O): 384 nm
emission maximum (in CN(C)C=O): 406 nm
emission maximum (in CO): 389 nm
emission maximum (in CS(C)=O): 417 nm
emission maximum (in Cc1ccccc1): 385 nm
emission maximum (in ClC(Cl)Cl): 389 nm
emission maximum (in ClCCl): 393 nm

emission maximum (in C1CCOC1): 446 nm
SMILES: N#Cc1c(N2CCCC2)cc(-c2ccccc2)c2c1-c1ccccc1C2

SMILES: CCCCCCc1ccc2c(/C=N/c3ccc(/N=C/c4c(O)ccc5cc(CCCCCC)ccc45)cc3)c(O)ccc2c1
emission maximum (in C1CCOC1): 542 nm
emission maximum (in CC#N): 539 nm
emission maximum (in Cc1ccccc1): 546 nm
emission maximum (in ClCCl): 546 nm

emission maximum (in O): 500 nm
SMILES: CC[n+]1c(-c2ccccc2)c2cc(NC(N)=[NH2+])ccc2c2ccc(NC(N)=[NH2+])cc21

emission maximum (in C1CCOC1): 368 nm
emission maximum (in C1COCCO1): 367 nm
emission maximum (in CC#N): 378 nm
emission maximum (in CC(C)O): 380 nm
emission maximum (in CCO): 382 nm
emission maximum (in CO): 387 nm
emission maximum (in CS(C)=O): 391 nm
emission maximum (in O): 400 nm
emission maximum (in OCC(F)(F)F): 391 nm
SMILES: N#Cc1cccc2cc[nH]c12

emission maximum (in ClCCl): 491 nm
SMILES: C1=C(c2ccccc2)S[C@]23C1=C(c1ccccc1)[C@H](c1ccccc12)c1ccccc13

emission maximum (in C1CCOC1): 468 nm
SMILES: N#Cc1c(N2CCCCC2)cc(-c2ccc(Br)cc2)c2c1CCc1ccccc1-2

emission maximum (in C1COCCO1): 714 nm
SMILES: CCCCOc1ccc(/C=C/C2=[N+]3C(=C(c4ccc(I)cc4)c4c(/C=C/c5ccc(N(C)C)cc5)cc(/C=C/c5ccc(OC)cc5)n4[B-]3(F)F)C(/C=C/c3ccc(OCCOCCOC)cc3)=C2)cc1

SMILES: CCC1=[N+]2c3c(c4ccc(Oc5c(C)cc(C)cc5C)c5cc6c(Oc7c(C)cc(C)cc7C)ccc7c8cc(CC)n(c8c3c(c54)c67)[B-]2(F)F)=C1
emission maximum (in Cc1ccccc1): 924 nm

emission maximum (in C1CCCCC1): 475 nm
emission maximum (in CC#N): 467 nm
emission maximum (in CO): 473 nm
emission maximum (in ClCCl): 485 nm
emission maximum (in O): 470 nm
SMILES: Cc1nc(-c2ccccc2)c2ccccn12

emission maximum (in ClCCl): 397.56 nm
SMILES: C=CCN(CC=C)c1ccc(-c2cc(-c3ccc(N(CC=C)CC=C)cc3)cc(-c3ccc(N(CC=C)CC=C)cc3)c2)cc1

emission maximum (in C1CCCCC1): 431 nm
emission maximum (in CC#N): 445 nm
emission maximum (in CO): 441 nm
emission maximum (in ClCCl): 443 nm
SMILES: COc1ccc2c(c1)c1c(OC)c3ccccc3c(OC)c1n2C
